These results are taken from paper PMC11558128 (Advanced Science, 2024).

Molecules are shown by their SMILES. Positions of bridges follow the written chain, without caps; N, C: chain ends. Residues, ends and D or L forms follow the SMILES beside them.

In one assay the target is T1, rKv4.2 (Rattus norvegicus, UniProt Q63881).
T1 construct: expressed in transfected cells; host or cells: HEK293T
T1 sequence (Q63881 1-630): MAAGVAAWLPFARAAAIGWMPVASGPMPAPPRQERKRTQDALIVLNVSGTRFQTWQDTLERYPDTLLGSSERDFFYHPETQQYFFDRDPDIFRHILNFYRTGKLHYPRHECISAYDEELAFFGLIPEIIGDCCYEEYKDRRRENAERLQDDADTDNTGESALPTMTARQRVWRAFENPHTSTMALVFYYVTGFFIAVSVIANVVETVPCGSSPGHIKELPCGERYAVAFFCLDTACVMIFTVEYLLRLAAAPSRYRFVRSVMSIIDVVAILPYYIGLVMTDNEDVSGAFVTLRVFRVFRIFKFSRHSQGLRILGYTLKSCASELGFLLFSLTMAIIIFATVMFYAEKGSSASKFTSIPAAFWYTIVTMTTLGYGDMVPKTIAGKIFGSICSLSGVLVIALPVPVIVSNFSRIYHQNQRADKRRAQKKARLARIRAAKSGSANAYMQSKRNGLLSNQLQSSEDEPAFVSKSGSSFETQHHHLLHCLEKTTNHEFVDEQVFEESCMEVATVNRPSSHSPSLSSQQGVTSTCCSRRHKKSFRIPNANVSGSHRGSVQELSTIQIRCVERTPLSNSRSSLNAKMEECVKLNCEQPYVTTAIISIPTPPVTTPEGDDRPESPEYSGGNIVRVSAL
Nature of the assay: cell-based. The settings on record: analogue compared with its parent toxin.
As for `CC(C)C[C@@H]1NC(=O)[C@H](Cc2ccc(O)cc2)NC(=O)[C@H](CC(N)=O)NC(=O)[C@H](CCCCN)NC(=O)[C@@H]2CSSC[C@H](NC(=O)CNC(=O)[C@@H](N)CCCCN)C(=O)N[C@@H](CCCCN)C(=O)NCC(=O)N[C@@H](Cc3ccccc3)C(=O)NCC(=O)N[C@@H](CC(=O)O)C(=O)N[C@@H](CO)C(=O)N[C@H]3CSSC[C@H](NC1=O)C(=O)N[C@@H](CO)C(=O)N[C@@H](CO)C(=O)N[C@@H](C)C(=O)N[C@@H](Cc1c[nH]cn1)C(=O)N[C@@H](CCCCN)C(=O)N[C@@H](Cc1c[nH]c4ccccc14)C(=O)N[C@H](C(=O)N[C@@H](CCCCN)C(=O)N[C@H](C(=O)N[C@@H](Cc1ccc(O)cc1)C(=O)N[C@@H](CC(C)C)C(=O)N[C@H](C(N)=O)C(C)C)C(C)C)CSSC[C@H](NC(=O)[C@H](CCC(=O)O)NC(=O)[C@H](CC(N)=O)NC(=O)[C@H](CCCCN)NC(=O)CNC(=O)[C@@H]1CCCN1C(=O)[C@H]([C@@H](C)O)NC3=O)C(=O)N2` [HNTX-III-H4-K25A] (H-KGCKGFGDSCTPGKNECCKNYLCSSAHKWCKVYLV-NH2; disulfide 3-18, 10-23, 17-30; N-terminus and C-terminus assumed), the “inhibition of rKv4.2, in words” value is listed as “disappeared”.

The assay is the same for the next values; noted with them: whole-cell patch clamp, HEK293T; mean ± SEM, n = 3-8; SEM; read-out: IC50 on rKv4.2 WT.
As usually defined, the IC50 is the concentration that inhibits the measured activity by half. On to `CC(C)C[C@H](NC(=O)[C@H](Cc1ccc(O)cc1)NC(=O)[C@@H](NC(=O)[C@H](CCCCN)NC(=O)[C@@H]1CSSC[C@@H]2NC(=O)[C@H](CCC(=O)O)NC(=O)[C@H](CC(N)=O)NC(=O)[C@H](CCCCN)NC(=O)CNC(=O)[C@@H]3CCCN3C(=O)[C@H]([C@@H](C)O)NC(=O)[C@@H]3CSSC[C@H](NC(=O)[C@H](CC(C)C)NC(=O)[C@H](Cc4ccc(O)cc4)NC(=O)[C@H](CC(N)=O)NC(=O)[C@@H]4CCCN4C(=O)[C@H](CSSC[C@H](NC(=O)CN)C(=O)N[C@@H](CCCCN)C(=O)NCC(=O)N[C@@H](Cc4ccccc4)C(=O)NCC(=O)N[C@@H](CC(=O)O)C(=O)N[C@@H](CO)C(=O)N3)NC2=O)C(=O)N[C@@H](CO)C(=O)N[C@@H](CO)C(=O)N[C@@H](CCCCN)C(=O)N[C@@H](Cc2c[nH]cn2)C(=O)N[C@@H](CCCCN)C(=O)N[C@@H](Cc2c[nH]c3ccccc23)C(=O)N1)C(C)C)C(N)=O` [A21L] (H-GCKGFGDSCTPGKNECCPNYLCSSKHKWCKVYL-NH2; disulfide 2-17, 9-22, 16-29), for which the IC50 stood at 0.06 ± 0.01 µM.
For `CC(C)C[C@H](NC(=O)[C@H](Cc1ccc(O)cc1)NC(=O)[C@@H](NC(=O)[C@H](CCCCN)NC(=O)[C@@H]1CSSC[C@@H]2NC(=O)[C@H](CCC(=O)O)NC(=O)[C@H](CC(N)=O)NC(=O)[C@H](CCCCN)NC(=O)CNC(=O)[C@@H]3CCCN3C(=O)[C@H]([C@@H](C)O)NC(=O)[C@@H]3CSSC[C@H](NC(=O)[C@H](C(C)C)NC(=O)[C@H](Cc4ccc(O)cc4)NC(=O)[C@H](CC(N)=O)NC(=O)[C@@H]4CCCN4C(=O)[C@H](CSSC[C@H](NC(=O)CN)C(=O)N[C@@H](CCCCN)C(=O)NCC(=O)N[C@@H](Cc4ccccc4)C(=O)NCC(=O)N[C@@H](CC(=O)O)C(=O)N[C@@H](CO)C(=O)N3)NC2=O)C(=O)N[C@@H](CO)C(=O)N[C@@H](CO)C(=O)N[C@@H](CCCCN)C(=O)N[C@@H](Cc2c[nH]cn2)C(=O)N[C@@H](CCCCN)C(=O)N[C@@H](Cc2c[nH]c3ccccc23)C(=O)N1)C(C)C)C(N)=O` [A21V] (H-GCKGFGDSCTPGKNECCPNYVCSSKHKWCKVYL-NH2; disulfide 2-17, 9-22, 16-29), the IC50 came to 1 ± 0.144 µM.
In the case of `CC(C)C[C@H](NC(=O)[C@H](Cc1ccc(O)cc1)NC(=O)[C@@H](NC(=O)[C@H](CCCCN)NC(=O)[C@@H]1CSSC[C@@H]2NC(=O)[C@H](CCC(=O)O)NC(=O)[C@H](CC(N)=O)NC(=O)[C@H](CCCCN)NC(=O)CNC(=O)[C@@H]3CCCN3C(=O)[C@H]([C@@H](C)O)NC(=O)[C@@H]3CSSC[C@H](NC(=O)[C@H](C)NC(=O)[C@H](Cc4ccc(O)cc4)NC(=O)[C@H](CC(N)=O)NC(=O)[C@@H]4CCCN4C(=O)[C@H](CSSC[C@H](NC(=O)CN)C(=O)N[C@@H](CCCCN)C(=O)NCC(=O)N[C@@H](CC(C)C)C(=O)NCC(=O)N[C@@H](CC(=O)O)C(=O)N[C@@H](CO)C(=O)N3)NC2=O)C(=O)N[C@@H](CO)C(=O)N[C@@H](CO)C(=O)N[C@@H](CCCCN)C(=O)N[C@@H](Cc2c[nH]cn2)C(=O)N[C@@H](CCCCN)C(=O)N[C@@H](Cc2c[nH]c3ccccc23)C(=O)N1)C(C)C)C(N)=O` [F5L] (H-GCKGLGDSCTPGKNECCPNYACSSKHKWCKVYL-NH2; disulfide 2-17, 9-22, 16-29), the half-inhibitory concentration (IC50) was found to be 10 ± 4 µM.
Regarding `CC(C)C[C@H](NC(=O)[C@H](Cc1ccc(O)cc1)NC(=O)[C@@H](NC(=O)[C@H](CCCCN)NC(=O)[C@@H]1CSSC[C@@H]2NC(=O)[C@H](CCC(=O)O)NC(=O)[C@H](CC(N)=O)NC(=O)[C@H](CCCCN)NC(=O)CNC(=O)[C@@H]3CCCN3C(=O)[C@H]([C@@H](C)O)NC(=O)[C@@H]3CSSC[C@H](NC(=O)[C@H](C)NC(=O)[C@H](Cc4ccc(O)cc4)NC(=O)[C@H](CC(N)=O)NC(=O)[C@@H]4CCCN4C(=O)[C@H](CSSC[C@H](NC(=O)CN)C(=O)N[C@@H](CCCCN)C(=O)NCC(=O)N[C@@H](Cc4c[nH]c5ccccc45)C(=O)NCC(=O)N[C@@H](CC(=O)O)C(=O)N[C@@H](CO)C(=O)N3)NC2=O)C(=O)N[C@@H](CO)C(=O)N[C@@H](CO)C(=O)N[C@@H](CCCCN)C(=O)N[C@@H](Cc2c[nH]cn2)C(=O)N[C@@H](CCCCN)C(=O)N[C@@H](Cc2c[nH]c3ccccc23)C(=O)N1)C(C)C)C(N)=O` [F5W] (H-GCKGWGDSCTPGKNECCPNYACSSKHKWCKVYL-NH2; disulfide 2-17, 9-22, 16-29), the IC50 worked out at 0.833 ± 0.081 µM.
As to `CC(C)C[C@H](NC(=O)[C@H](Cc1ccc(O)cc1)NC(=O)[C@@H](NC(=O)[C@H](CCCCN)NC(=O)[C@@H]1CSSC[C@@H]2NC(=O)[C@H](CCC(=O)O)NC(=O)[C@H](CC(N)=O)NC(=O)[C@H](CCCCN)NC(=O)CNC(=O)[C@@H]3CCCN3C(=O)[C@H]([C@@H](C)O)NC(=O)[C@@H]3CSSC[C@H](NC(=O)[C@H](C)NC(=O)[C@H](Cc4ccc(O)cc4)NC(=O)[C@H](CC(N)=O)NC(=O)[C@@H]4CCCN4C(=O)[C@H](CSSC[C@H](NC(=O)[C@@H](N)Cc4ccccc4)C(=O)N[C@@H](CCCCN)C(=O)NCC(=O)N[C@@H](Cc4ccccc4)C(=O)NCC(=O)N[C@@H](CC(=O)O)C(=O)N[C@@H](CO)C(=O)N3)NC2=O)C(=O)N[C@@H](CO)C(=O)N[C@@H](CO)C(=O)N[C@@H](CCCCN)C(=O)N[C@@H](Cc2c[nH]cn2)C(=O)N[C@@H](CCCCN)C(=O)N[C@@H](Cc2c[nH]c3ccccc23)C(=O)N1)C(C)C)C(N)=O` [G1F] (H-FCKGFGDSCTPGKNECCPNYACSSKHKWCKVYL-NH2; disulfide 2-17, 9-22, 16-29), the IC50 was determined as 0.176 ± 0.047 µM.
Take `CC(C)C[C@H](NC(=O)[C@H](Cc1ccc(O)cc1)NC(=O)[C@@H](NC(=O)[C@H](CCCCN)NC(=O)[C@@H]1CSSC[C@@H]2NC(=O)[C@H](CCC(=O)O)NC(=O)[C@H](CC(N)=O)NC(=O)[C@H](CCCCN)NC(=O)[C@H](CCC(=O)O)NC(=O)[C@@H]3CCCN3C(=O)[C@H]([C@@H](C)O)NC(=O)[C@@H]3CSSC[C@H](NC(=O)[C@H](C)NC(=O)[C@H](Cc4ccc(O)cc4)NC(=O)[C@H](CC(N)=O)NC(=O)[C@@H]4CCCN4C(=O)[C@H](CSSC[C@H](NC(=O)CN)C(=O)N[C@@H](CCCCN)C(=O)NCC(=O)N[C@@H](Cc4ccccc4)C(=O)NCC(=O)N[C@@H](CC(=O)O)C(=O)N[C@@H](CO)C(=O)N3)NC2=O)C(=O)N[C@@H](CO)C(=O)N[C@@H](CO)C(=O)N[C@@H](CCCCN)C(=O)N[C@@H](Cc2c[nH]cn2)C(=O)N[C@@H](CCCCN)C(=O)N[C@@H](Cc2c[nH]c3ccccc23)C(=O)N1)C(C)C)C(N)=O` [G12E] (H-GCKGFGDSCTPEKNECCPNYACSSKHKWCKVYL-NH2; disulfide 2-17, 9-22, 16-29): the IC50 stood at 0.359 ± 0.082 µM.
